From ChEMBL document CHEMBL1154961, “Structure-activity relationships of bacterial outer-membrane permeabilizers based on polymyxin B heptapeptides” (2010)
≈ marks a conversion by molar mass, not a printed value.

What was measured:
Escherichia coli [1] = assay: Antibacterial activity against Escherichia coli K-12 W3110 after 20 hrs by liquid microdilution method; assay type: functional; conditions: K-12 W3110, 20 h
Staphylococcus aureus = assay: Antibacterial activity against Staphylococcus aureus 209P after 20 hrs by liquid microdilution method; assay type: functional
Escherichia coli [2] = assay: Induction of outer membrane permeability in Escherichia coli K-12 W3110 assessed as increase in novobiocin antibacterial activity after 20 hrs by liquid microdilution method; assay type: functional, organism-based
Escherichia coli [3] = assay: Induction of outer membrane permeability in Escherichia coli K-12 W3110 assessed as increase in erythromycin antibacterial activity after 20 hrs by liquid microdilution method; assay type: functional, organism-based

Row | SMILES | MIC (Escherichia coli [1]) | MIC (Staphylococcus aureus) | Activity (Escherichia coli [2]) | Activity (Escherichia coli [3])
1 | CC(C)C[C@@H]1NC(=O)[C@@H](Cc2ccccc2)NC(=O)[C@H](CN)N(C(=O)O)CCNC(=O)[C@H]([C@@H](C)O)NC(=O)[C@H](CCCN)NC(=O)[C@H](CN)NC1=O | > 128 µg/mL |  |  | 
2 | CC(C)C[C@@H]1NC(=O)[C@@H](Cc2ccccc2)NC(=O)[C@H](CN)N(C(=O)O)CCNC(=O)[C@H]([C@@H](C)O)NC(=O)[C@H](CN)NC(=O)[C@H](CCCN)NC1=O | > 128 µg/mL |  |  | 
3 | CC(C)C[C@@H]1NC(=O)[C@@H](Cc2ccccc2)NC(=O)[C@H](CCCN)N(C(=O)O)CCNC(=O)[C@H]([C@@H](C)O)NC(=O)[C@H](CCCN)NC(=O)[C@H](CCCN)NC1=O | > 128 µg/mL |  |  | 
4 | CO[C@@H]1[C@@H](OC(N)=O)[C@@H](O)[C@H](Oc2ccc3c(O)c(NC(=O)c4ccc(O)c(CC=C(C)C)c4)c(=O)oc3c2C)OC1(C)C [NOVOBIOCIN] | 128 µg/mL (≈ 209 µM) |  |  | 
5 | CC(C)CCCCCCCC(=O)N[C@@H](C(=O)N[C@@H](CN)C(=O)NCC(=O)N1CCNC(=O)[C@H]([C@@H](C)O)NC(=O)[C@H](CCN)NC(=O)[C@H](CCN)NC(=O)[C@H](CC(C)C)NC(=O)[C@@H](Cc2ccccc2)NC(=O)[C@@H]1CCN)[C@@H](C)O | 0.5 µg/mL (≈ 0.447 µM) | 64 µg/mL (≈ 57.3 µM) |  | 
6 | CC(C)C[C@@H]1NC(=O)[C@@H](Cc2ccccc2)NC(=O)[C@H](CN)N(C(=O)O)CCNC(=O)[C@H]([C@@H](C)O)NC(=O)[C@H](CN)NC(=O)[C@H](CN)NC1=O | > 128 µg/mL |  |  | 
7 | CC(C)C[C@@H]1NC(=O)[C@@H](Cc2ccccc2)NC(=O)[C@H](CCN)N(C(=O)O)CCNC(=O)[C@H]([C@@H](C)O)NC(=O)[C@H](CCN)NC(=O)[C@H](CCN)NC1=O | > 128 µg/mL |  | Dose-dependent effect | Dose-dependent effect
8 | CC[C@H]1OC(=O)[C@H](C)[C@@H](O[C@H]2C[C@@](C)(OC)[C@@H](O)[C@H](C)O2)[C@H](C)[C@@H](O[C@@H]2O[C@H](C)C[C@H](N(C)C)[C@H]2O)[C@](C)(O)C[C@@H](C)C(=O)[C@H](C)[C@@H](O)[C@]1(C)O [ERYTHROMYCIN] | 64 µg/mL (≈ 87.2 µM) |  |  | 
9 | CCCCCCCC(=O)N[C@@H](CCN)C(=O)N[C@@](C)(C(=O)N[C@@H](CCN)C(=O)N[C@H]1CCNC(=O)[C@H]([C@@H](C)O)NC(=O)[C@H](CCN)NC(=O)[C@H](CCN)NC(=O)[C@H](CC(C)C)NC(=O)[C@@H](Cc2ccccc2)NC(=O)[C@H](CCN)N1)[C@H](C)O | 0.5 µg/mL (≈ 0.425 µM) | > 128 µg/mL |  | 
10 | CCCCCCCC(=O)N[C@@H](CCN)C(=O)N[C@@H](C(=O)N[C@@H](CCN)C(=O)N[C@H]1CCNC(=O)[C@H]([C@H](C)O)NC(=O)[C@H](CCN)NC(=O)[C@H](CCN)NC(=O)[C@H](CC(C)C)NC(=O)[C@@H](Cc2ccccc2)NC(=O)[C@H](CN)C1=O)[C@H](C)O | 16 µg/mL (≈ 13.8 µM) | > 128 µg/mL |  | 
